Laboratory results from article PMC8739347 (Tropical Medicine and Health, 2022).

Legend:
Experiment in all cases: Antiviral activity assay in Vero E6 cells, qRT-PCR of supernatant
Format in all cases: cell-based
[1] = test system: SARS-CoV-2 Delta variant (hCoV-19/Japan/TY11-330-P1//2021); settings: for IC50: Severe acute respiratory syndrome coronavirus 2, Vero C1008, Delta, compound concentration (for 5-ALA/SFC the 5-ALA concentration, ratio 4:1)
[2] = test system: SARS-CoV-2 Alpha variant (hCoV-19/Japan/QK002/2020); settings: Severe acute respiratory syndrome coronavirus 2, Vero C1008, compound concentration (for 5-ALA/SFC the 5-ALA concentration, ratio 4:1)
[3] = test system: SARS-CoV-2 Beta variant (hCoV-19/Japan/TY8-612/2020); settings: Severe acute respiratory syndrome coronavirus 2, Vero C1008, compound concentration (for 5-ALA/SFC the 5-ALA concentration, ratio 4:1)
[4] = test system: SARS-CoV-2 Gamma variant (hCoV-19/Japan/TY7-501/2020); settings: for IC50: Severe acute respiratory syndrome coronavirus 2, Vero C1008, Gamma, compound concentration (for 5-ALA/SFC the 5-ALA concentration, ratio 4:1)

| SMILES | viral inhibition [1] | IC50 [1] [µM] | IC50 [2] [µM] | IC50 [3] [µM] | viral inhibition [4] | IC50 [4] [µM] |
| --- | --- | --- | --- | --- | --- | --- |
| NCC(=O)CCC(=O)O [5-ALA, 5-aminolevulinic acid] | little viral inhibition | > 2000 | 104 | 1590 | no viral inhibition | > 2000 |
| CCC(CC)COC(=O)[C@H](C)N[P@](=O)(OC[C@H]1O[C@@](C#N)(c2ccc3c(N)ncnn23)[C@H](O)[C@@H]1O)Oc1ccccc1 [remdesivir, Remdesivir] | – | 0.1 to 1 | 0.1 to 1 | 0.1 to 1 | – | 0.1 to 1 |
